Measurements: PMC4176318 (ACS Chemical Neuroscience, 2014)

System: C57Bl/6J mice
Test: Tail suspension test
Type: in vivo, mouse
Settings: 10 mg/kg i.p., 30 min prior to testing, 6 min trial; saline 143.7 ± 3.3 s

SMILES | immobility in TST
CN(C)CCCC1(c2ccc(F)cc2)OCc2cc(C#N)ccc21 (centres unmarked) [citalopram] | 29.7 ± 14.5 s
COCCCC/C(=N\OCCN)c1ccc(C(F)(F)F)cc1 [fluvoxamine] | 59.0 ± 12.5 s
